Patent US20220009920A1 (GB005, Inc., priority 2020, published 2022)

What was measured:
BTK = target: T1, BTK (Homo sapiens, UniProt Q06187); assay: Assay to determine activity against BTK; format: biochemical; details: 1 mM ATP, 2 nM BTK, 90 minutes at room temperature
T1 construct: purchased Cama
Protocol: Solutions of compounds (test or control) in DMSO were prepared at the desired concentrations, and serially diluted to 11 concentrations by 3-fold dilution in 384pp-plate using TECAN EVO200. 20 nL of stock were transferred to 384 plate using Echo550. DMSO was used as vehicle control.
(BTK was obtained from Cama; FLPeptide2 was obtained from PerkinElmer and Ibrutinib was obtained from Selleck.) 5 μL of ATP solution were added to each well, followed by addition of 15 μL of BTK solution to initiate the reaction. (Note the final volume of each well was 20 μL containing MgCl2 (10 mM), Brij-35 (0.01%), DTT (2 mM), BSA (0.05%), EGTA (1 mM), HEPE (pH7.5) (50 mM), FLPeptide (1.5 uM), ATP (1 mM) and BTK (2 nM).
The plates were incubated at room temperature for 90 minutes and then stopping buffer added (75 μL, containing 0.5 M EDTA) to terminate the reaction. Samples from each well were analyzed using EZ reader. The % remaining activity was calculated using read conversion ratio (CR) according to the equation: […]
XLFit (equation 201) was used to calculate IC50's by floating both bottom and top.

BTK in RAMOS B cells = assay: Assay to determine BTK activity in RAMOS B cells (anti-IgM, FLIPR Calcium 6); format: cell-based; details: anti-IgM EC80, calcium readout
Protocol: On the day before assay, Ramos B cells were plated in plating medium (RPMI1640 medium containing 1% FBS and 1× pencillin-streptomycin). On the day of the assay, 2× dye solution was prepared following the manual of the FLIRP Calcium 6 Assay Kit: Dilute the dye with assay buffer (20 mM HEPES in IX HBSS, pH7.4); Add probenecid to the final concentration of 5 mM; vortex vigorously for 1-2 minutes. Cells were collected by centrifuging, and the pellet was re-suspended in plating medium. After counting, cells were re-suspended at a density of 3×10^6/ml in plating medium. Equal volume of 2× dye solution was added to the cell suspension. Cells were then plated at 20 μl/well into a 384-well poly-D-lysine coated plate. Plate was centrifuged at 1000 rpm for 3 minutes and then incubated at 37° C. for 2 hours followed by an additional 15-minute incubation at 25° C. Compounds were prepared at 3× concentration in dilution buffer (20 mM HEPES and 0.1% BSA in 1×HBSS, pH 7.4). Serially diluted compound was transferred from source plate to a 384-well compound plate by using an Echo 550 (Labcyte). 20 μl/well compound dilution buffer was added to the compound plate and mixed on plate shaker for 2 mins. 4× EC80 of Anti-IgM (Jackson ImmunoResearch) was prepared in dilution buffer and 20 μl/well was added to a new 384-well compound plate. After 60 mins of incubation at 25° C. in the dark; cell plate, compound plate containing 4×EC80 of anti-IgM and FLIPR tips were placed into FLIPR (Molecular Devices). 10 ul/well of 4×EC80 anti-IgM was transferred to the cell plate by FLIPR. Plates were read for 160 sec with 1 sec interval.

T1 sequence (Q06187 whole entry): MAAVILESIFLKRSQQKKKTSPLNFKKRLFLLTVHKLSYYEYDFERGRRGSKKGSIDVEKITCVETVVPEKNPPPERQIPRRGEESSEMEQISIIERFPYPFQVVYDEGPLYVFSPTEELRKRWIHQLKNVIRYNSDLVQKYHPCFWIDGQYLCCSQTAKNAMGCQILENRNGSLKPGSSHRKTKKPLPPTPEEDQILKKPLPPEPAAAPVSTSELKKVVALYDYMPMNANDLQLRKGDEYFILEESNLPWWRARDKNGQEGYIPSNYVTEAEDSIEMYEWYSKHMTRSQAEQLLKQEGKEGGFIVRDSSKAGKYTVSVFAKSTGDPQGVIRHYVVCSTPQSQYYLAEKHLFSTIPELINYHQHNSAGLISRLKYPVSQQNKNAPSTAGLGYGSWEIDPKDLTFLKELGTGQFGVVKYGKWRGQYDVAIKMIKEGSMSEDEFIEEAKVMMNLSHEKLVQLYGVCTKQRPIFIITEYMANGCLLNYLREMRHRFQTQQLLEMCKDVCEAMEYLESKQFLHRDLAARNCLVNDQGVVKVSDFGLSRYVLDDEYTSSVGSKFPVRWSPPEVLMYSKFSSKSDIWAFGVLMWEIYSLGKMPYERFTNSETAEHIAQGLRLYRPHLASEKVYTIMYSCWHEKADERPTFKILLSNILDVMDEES

IC50 (BTK) [nM] | IC50 (BTK in RAMOS B cells; Homo sapiens, Ramos) [nM] | IC50 (BTK in RAMOS B cells) [nM] | SMILES
10 to 100 | 10 to 100 | – | C=CC(=O)N1CCC=C(c2ccc(C(N)=O)c3[nH]c4c(c23)CC2(CC4)CC2)C1 [Compound 7-1, 4-(1-prop-2-enoyl-3,6-dihydro-2H-pyridin-5-yl)spiro[5,7,8,9-tetrahydro-carbazole-6,1′-cyclopropane]-1-carboxamide]
≥ 100 | ≥ 100 | – | C=CC(=O)N1CCC=C(c2ccc(C(N)=O)c3[nH]c4c(c23)CC2(CCC2)CC4)C1 [Compound 7-3, 5-(1-acryloyl-1,2,5,6-tetrahydropyridin-3-yl)-1,2,4,9-tetrahydrospiro[carbazole-3,1′-cyclobutane]-8-carboxamide]
≥ 100 | ≥ 100 | – | C=CC(=O)N1CCc2c(cccc2-c2ccc(C(N)=O)c3[nH]c4c(c23)CC2(CCC2)CC4)C1 [Compound 7-4, 5-(2-acryloyl-1,2,3,4-tetrahydroisoquinolin-5-yl)-1,2,4,9-tetrahydrospiro[carbazole-3,1′-cyclobutane]-8-carboxamide]
10 to 100 | 10 to 100 | – | C=CC(=O)N1CCC=C(c2ccc(C(N)=O)c3[nH]c4c(c23)CC2(CCCC2)CC4)C1 [Compound 7-5, 5-(1-acryloyl-1,2,5,6-tetrahydropyridin-3-yl)-1,2,4,9-tetrahydrospiro[carbazole-3,1′-cyclopentane]-8-carboxamide]
< 10 | – | 10 to 100 | C=CC(=O)N1CCc2c(cccc2-c2c(F)cc(C(N)=O)c3[nH]c4c(c23)CC2(CC4)CC2)C1 [Compound 7-12, 5-(2-acryloyl-1,2,3,4-tetrahydroisoquinolin-5-yl)-6-fluoro-1,2,4,9-tetrahydrospiro[carbazole-3,1′-cyclopropane]-8-carboxamide]
10 to 100 | ≥ 100 | – | C=CC(=O)N1CCc2c(cccc2-c2c(F)cc(C(N)=O)c3[nH]c4c(c23)CC2(CCC2)CC4)C1 [Compound 7-13, 5-(2-acryloyl-1,2,3,4-tetrahydroisoquinolin-5-yl)-6-fluoro-1,2,4,9-tetrahydrospiro[carbazole-3,1′-cyclobutane]-8-carboxamide]
≥ 100 | ≥ 100 | – | C=CC(=O)N1CCc2c(cccc2-c2c(F)cc(C(N)=O)c3[nH]c4c(c23)CC2(CCCC2)CC4)C1 [Compound 7-14, 5-(2-acryloyl-1,2,3,4-tetrahydroisoquinolin-5-yl)-6-fluoro-1,2,4,9-tetrahydrospiro[carbazole-3,1′-cyclopentane]-8-carboxamide]
10 to 100 | – | ≥ 100 | C=CC(=O)N1CCc2c(cccc2-c2c(F)cc(C(N)=O)c3[nH]c4c(c23)CC2(CCCO2)CC4)C1 (stereo not shown) [Compound 7-15, 5-(2-acryloyl-1,2,3,4-tetrahydroisoquinolin-5-yl)-6-fluoro-1,2,4,4′,5′,9-hexahydro-3′H-spiro[carbazole-3,2′-furan]-8-carboxamide]
< 10 | – | 10 to 100 | C=CC(=O)N1CCc2c(cccc2-c2c(F)cc(C(N)=O)c3[nH]c4c(c23)CC2(CCCO2)CC4)C1 (stereo not shown) [Compound 7-16, 5-(2-acryloyl-1,2,3,4-tetrahydroisoquinolin-5-yl)-6-fluoro-1,2,4,4′,5′,9-hexahydro-3′H-spiro[carbazole-3,2′-furan]-8-carboxamide]
10 to 100 | ≥ 100 | – | C=CC(=O)N1CCc2c(cccc2-c2c(F)cc(C(N)=O)c3[nH]c4c(c23)CC2(CCOC2)CC4)C1 (stereo not shown) [Compound 7-17, 5-(2-acryloyl-1,2,3,4-tetrahydroisoquinolin-5-yl)-6-fluoro-1,2,4,4′,5′,9-hexahydro-2′H-spiro[carbazole-3,3′-furan]-8-carboxamide]
10 to 100 | – | ≥ 100 | C=CC(=O)N1CCc2c(cccc2-c2c(F)cc(C(N)=O)c3[nH]c4c(c23)CC2(CCOC2)CC4)C1 (stereo not shown) [Compound 7-18, 5-(2-acryloyl-1,2,3,4-tetrahydroisoquinolin-5-yl)-6-fluoro-1,2,4,4′,5′,9-hexahydro-2′H-spiro[carbazole-3,3′-furan]-8-carboxamide]

Further lines, the molecule ahead of its results:

SMILES | IC50 (BTK) [nM] | IC50 (BTK in RAMOS B cells; Homo sapiens, Ramos) [nM] | IC50 (BTK in RAMOS B cells) [nM]
C=CC(=O)N1CCC=C(c2ncc(C(N)=O)c3[nH]c4c(c23)CCCC4)C1 [Compound 3-2, 1-(1-acryloyl-1,2,5,6-tetrahydropyridin-3-yl)-6,7,8,9-tetrahydro-5H-pyrido[4,3-b]indole-4-carboxamide] | < 10 | < 10 | –
C=CC(=O)N1CCCC(c2ncc(C(N)=O)c3[nH]c4c(c23)CCCC4)C1 (stereo not shown) [Compound 3-3, 1-(1-acryloylpiperidin-3-yl)-6,7,8,9-tetrahydro-5H-pyrido[4,3-b]indole-4-carboxamide] | < 10 | < 10 | –
C=CC(=O)N[C@H]1CCCN(c2ncc(C(N)=O)c3[nH]c4c(c23)CCCC4)C1 [Compound 3-4, (S)-1-(3-acrylamidopiperidin-1-yl)-6,7,8,9-tetrahydro-5H-pyrido[4,3-b]indole-4-carboxamide] | ≥ 100 | ≥ 100 | –
CC#CC(=O)N[C@H]1CCCN(c2c(F)cc(C(N)=O)c3[nH]c4c(c23)CCCCC4)C1 [Compound 4-1, (S)-1-(3-(but-2-ynamido)piperidin-1-yl)-2-fluoro-5,6,7,8,9,10-hexahydrocyclohepta[b]indole-4-carboxamide] | 10 to 100 | 10 to 100 | –
C=CC(=O)N1CC[C@@H]2CCN(c3c(F)cc(C(N)=O)c4[nH]c5c(c34)CCCCC5)C[C@@H]21 [Compound 4-2, 1-((3aS,7aR)-1-acryloyloctahydro-6H-pyrrolo[2,3-c]pyridin-6-yl)-2-fluoro-5,6,7,8,9,10-hexahydrocyclohepta[b]indole-4-carboxamide] | ≥ 100 | ≥ 100 | –
CC#CC(=O)N[C@H]1C[C@H](O)CN(c2c(F)cc(C(N)=O)c3[nH]c4c(c23)CCCCC4)C1 [Compound 4-3, 1-((3S,5S)-3-(but-2-ynamido)-5-hydroxypiperidin-1-yl)-2-fluoro-5,6,7,8,9,10-hexahydrocyclohepta[b]indole-4-carboxamide] | 10 to 100 | 10 to 100 | –
CC#CC(=O)N[C@H]1C[C@@H](O)CN(c2c(F)cc(C(N)=O)c3[nH]c4c(c23)CCCCC4)C1 [Compound 4-4, 1-((3S,5R)-3-(but-2-ynamido)-5-hydroxypiperidin-1-yl)-2-fluoro-5,6,7,8,9,10-hexahydrocyclohepta[b]indole-4-carboxamide] | 10 to 100 | ≥ 100 | –
C=CC(=O)Nc1cccc(-c2c(F)cc(C(N)=O)c3[nH]c4c(c23)CCCCC4)c1 [Compound 5-3, 1-(3-acrylamidophenyl)-2-fluoro-5,6,7,8,9,10-hexahydrocyclohepta[b]indole-4-carboxamide] | 10 to 100 | 10 to 100 | –
CC#CC(=O)N[C@@H]1C=C(c2c(F)cc(C(N)=O)c3[nH]c4c(c23)CCCCC4)CCC1 [Compound 5-9, 1-[(3S)-3-(but-2-ynoylamino)cyclohexen-1-yl]-2-fluoro-5,6,7,8,9,10-hexahydrocyclohepta[b]indole-4-carboxamide] | 10 to 100 | 10 to 100 | –
C=CC(=O)N1CCC=C(c2ccc(C(N)=O)c3[nH]c4c(c23)CC2(CC4)OCCO2)C1 [Compound 6-1, 4′-(1-prop-2-enoyl-3,6-dihydro-2H-pyridin-5-yl)spiro[1,3-dioxolane-2,6′-5,7,8,9-tetrahydrocarbazole]-1′-carboxamide] | 10 to 100 | 10 to 100 | –
C=CC(=O)N1CCC=C(c2ccc(C(N)=O)c3[nH]c4c(c23)CC2(CCCO2)CC4)C1 (stereo not shown) [Compound 7-6, 5-(1-acryloyl-1,2,5,6-tetrahydropyridin-3-yl)-1,2,4,4′,5′,9-hexahydro-3′H-spiro[carbazole-3,2′-furan]-8-carboxamide] | ≥ 100 | ≥ 100 | –
C=CC(=O)N1CCC=C(c2c(F)cc(C(N)=O)c3[nH]c4c(c23)CC2(CC4)CC2)C1 [Compound 7-11, 5-(1-acryloyl-1,2,5,6-tetrahydropyridin-3-yl)-6-fluoro-1,2,4,9-tetrahydrospiro[carbazole-3,1′-cyclopropane]-8-carboxamide] | < 10 | < 10 | –
